Measured values: PubChem BioAssay (NCI)
Several values for one entry are separate records, joined by “and”; a condition that tells them apart may be missing. Equal entries are not always repeated.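 Dose response: 5 concentrations. Exposure: 48 h. Format: 96-well plates. Endpoint: linear interpolation; highest concentration if not reached. At the GI50, growth is halved. At the TGI there is no net growth.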

Legend:
Experiment in all cases: NCI anticancer screen, dose series, 48 h
[1] = tested on: HL-60(TB) leukemia
[2] = tested on: UO-31 renal
[3] = tested on: SF-539 CNS
[4] = tested on: HCT-116 colon
[5] = tested on: ACHN renal
[6] = tested on: 786-0 renal
[7] = tested on: LOX IMVI melanoma
[8] = tested on: PC-3 prostate
[9] = tested on: HS 578T breast
[10] = tested on: MDA-MB-435

Work on OC1OCC(COc2cc(Cl)c(Cl)cc2Cl)OC1O (stereo not drawn) yielded a TGI [1] of 90.9 µM, a TGI [2] greater than 100 µM and a TGI [3] greater than 100 µM. For the same compound, the TGI [4] was 42.1 µM, the TGI [5] was greater than 100 µM and the TGI [6] was greater than 100 µM.
In the case of COc1cc(C2c3cc4c(cc3[C@@H](NC3CCN(Cc5ccccc5)CC3)C3COC(=O)[C@H]23)OCO4)cc(OC)c1O (stereo partly drawn), the TGI [1] is reported as 0.2 µM and 0.0548 µM, the GI50 [2] is reported as 0.214 µM and 0.0879 µM and the TGI [2] is reported as 1.11 µM and 0.275 µM. For the same compound, the TGI [3] was 0.263 µM and 0.194 µM, the TGI [4] was 2.28 µM and 1.59 µM and the GI50 [7] was 0.145 µM and 0.0349 µM. The TGI [7] was 1.18 µM and 0.231 µM, the GI50 [6] was 0.161 µM and 0.0333 µM and the TGI [6] was 0.668 µM and 0.221 µM.
For Cc1ccc(/C=C2\CCCCC2=O)cc1, the TGI [1] was 48.3 µM, the TGI [2] was greater than 100 µM and the TGI [3] was greater than 100 µM. The TGI [4] was greater than 100 µM, the TGI [7] was greater than 100 µM and the TGI [5] was greater than 100 µM. The TGI [6] was greater than 100 µM.
For COc1ccc(N=NC2=C(O)CCC2=O)cc1, the TGI [1] was greater than 100 µM, the TGI [2] was greater than 100 µM and the TGI [3] was greater than 100 µM. The TGI [4] was greater than 100 µM, the TGI [7] was greater than 100 µM and the TGI [5] was greater than 100 µM. The TGI [6] was greater than 100 µM.
Compound CSc1ccc(N2C(=O)C3c4[nH]c5ccccc5c4C4CCC(C(C)(C)C)CC4C3C2=O)cc1 (stereo not drawn) has a TGI [1] of 31.1 µM, a TGI [2] of 40.7 µM and a TGI [3] of 43.1 µM. For the same compound, the TGI [4] was 18 µM, the TGI [7] was 31.8 µM and the TGI [5] was 29.1 µM. The TGI [6] was 29.1 µM.
C=CCC1(CN(C)C)CC/C(=C\c2ccc3c(c2)OCO3)C1=O (stereo not drawn) showed a TGI [1] of 15.8 µM, a TGI [2] greater than 100 µM and a TGI [3] greater than 100 µM. For the same compound, the TGI [4] was greater than 100 µM, the TGI [7] was greater than 100 µM and the TGI [5] was greater than 100 µM. For the same compound, the TGI [6] was greater than 100 µM.
O=C(Nc1ccc(Br)c2ccccc12)c1ccc2ccccc2c1O showed a TGI [1] of 88.8 µM, a TGI [8] of 6.21 µM and a TGI [9] of 13.5 µM. For the same compound, the TGI [2] was 12.9 µM, the TGI [3] was 24.9 µM and the TGI [4] was 11.2 µM. For the same compound, the TGI [5] was greater than 100 µM and the TGI [6] was 15.9 µM.
In the case of Cc1cc(-c2ccccc2)nc(Nc2cc3ccccc3[nH]2)n1, the TGI [1] is reported as greater than 100 µM, the TGI [2] is reported as greater than 100 µM and the TGI [3] is reported as greater than 100 µM. The TGI [4] was greater than 100 µM, the TGI [7] was greater than 100 µM and the TGI [5] was greater than 100 µM. For the same compound, the TGI [6] was greater than 100 µM.
For COc1ccc(C(C2=C(O)CC(C)OC2=O)C2=C(O)CC(C)OC2=O)cc1 (stereo not drawn), the TGI [2] was greater than 100 µM, the TGI [3] was greater than 100 µM and the TGI [4] was greater than 100 µM. For the same compound, the TGI [7] was greater than 100 µM, the TGI [5] was greater than 100 µM and the TGI [6] was greater than 100 µM.
CC(=O)C1=C(C)N(Cc2ccccc2)C2(O)C=CC(=O)C3=C(O)c4ccccc4C(=O)C312 (stereo not drawn) gave a GI50 [1] greater than 100 µM, a TGI [1] greater than 100 µM and a GI50 [8] of 10.3 µM. It also gave a TGI [8] of 31.2 µM, a GI50 [9] of 18.5 µM and a TGI [9] of 60 µM. It also gave a GI50 [3] of 2.91 µM, a TGI [3] of 7.09 µM and a GI50 [4] of 1.99 µM. The TGI [4] was 3.86 µM, the GI50 [7] was 1.97 µM and the TGI [7] was 4.39 µM. The GI50 [6] was 2.26 µM, the TGI [6] was 4.26 µM and the GI50 [10] was 2.26 µM. It also gave a TGI [10] of 4.14 µM.
In the case of CCCCCCCCCCCCCCNCC(OC)OC, the TGI [1] is reported as 23 µM, the TGI [2] is reported as 25.7 µM and the TGI [3] is reported as 30.9 µM. It also gave a TGI [4] of 26 µM, a TGI [7] of 33.5 µM and a TGI [5] of 31.1 µM. It also gave a TGI [6] of 31 µM.
CCC(O)CCCCCCCCCCCCCCC(=O)O (stereo not drawn) was tested, and the TGI [1] was 80 µM, the TGI [2] was greater than 100 µM and the TGI [3] was greater than 100 µM. For the same compound, the TGI [4] was greater than 100 µM, the TGI [5] was greater than 100 µM and the TGI [6] was greater than 100 µM.
COc1cc(/C=C2\[C@@H]3NC(Cc4c(OC)c(C)c(OC)c(OC)c43)C(=O)N2Cc2ccccc2)c(OC)c(C)c1OC showed a TGI [1] of 62.8 µM, a TGI [2] of 80.5 µM and a TGI [3] greater than 100 µM. For the same compound, the TGI [4] was greater than 100 µM, the TGI [7] was greater than 100 µM and the TGI [5] was greater than 100 µM. The TGI [6] was greater than 100 µM.
With O=[N+]([O-])c1ccc2c(c1)C(N1CCN(CCO)CC1)Cc1ccc(F)cc1S2 (stereo not drawn) the TGI [1] was 23.1 µM, the TGI [8] was 15.4 µM and the TGI [9] was 26.1 µM. For the same compound, the TGI [2] was 18.1 µM, the TGI [3] was 22.6 µM and the TGI [4] was 19.7 µM. For the same compound, the TGI [5] was 16.7 µM and the TGI [6] was 26.4 µM.
CCOC(=O)N1CCC(N=C2CSc3nnc(-c4cc(C(F)(F)F)cc(C(F)(F)F)c4)n3N2)CC1 showed a GI50 [8] of 2.2 µM, a TGI [8] of 6.27 µM and a GI50 [9] of 2.31 µM. The TGI [9] was 6.4 µM, the GI50 [2] was 1.66 µM and the TGI [2] was 5.4 µM. The GI50 [3] was 2.06 µM, the TGI [3] was 3.88 µM and the GI50 [4] was 1.9 µM. It also gave a TGI [4] of 3.7 µM, a GI50 [7] of 1.77 µM and a TGI [7] of 3.45 µM. It also gave a GI50 [5] of 2.53 µM, a TGI [5] of 5.99 µM and a GI50 [6] of 2.18 µM. For the same compound, the TGI [6] was 5.21 µM, the GI50 [10] was 1.58 µM and the TGI [10] was 3 µM.
CC1(c2ccc(F)cc2)C2C(=O)NC(=O)C1C(=O)NC2=O (stereo not drawn) gave a TGI [1] greater than 100 µM, a TGI [2] greater than 100 µM and a TGI [3] greater than 100 µM. The TGI [7] was greater than 100 µM, the TGI [5] was greater than 100 µM and the TGI [6] was greater than 100 µM.
Compound CC1C(c2ccccc2)N(C)C(c2ccccc2)C(C)C1(O)c1ccccc1 (stereo not drawn) has a TGI [1] greater than 100 µM, a TGI [2] greater than 100 µM and a TGI [3] greater than 100 µM. For the same compound, the TGI [4] was greater than 100 µM, the TGI [7] was greater than 100 µM and the TGI [5] was greater than 100 µM. It also gave a TGI [6] greater than 100 µM.
For C[C@@H]1CC[C@@H]2[C@@H]1[C@H](OC(=O)/C=C/C1CCCCC1)[C@]1(C3CCCCC3)C[C@@H](OC(=O)CO)[C@@]2(C)O1, the GI50 [1] was 16.3 µM, the TGI [1] was 35.3 µM and the GI50 [8] was 11.5 µM. It also gave a TGI [8] of 24.3 µM, a GI50 [9] of 0.0162 µM and a TGI [9] of 0.0556 µM. It also gave a GI50 [3] of 14.3 µM, a TGI [3] of 27.9 µM and a GI50 [4] of 13.5 µM. The TGI [4] was 26.6 µM, the GI50 [7] was 14.3 µM and the TGI [7] was 27.1 µM. For the same compound, the GI50 [6] was 12 µM, the TGI [6] was 24.1 µM and the GI50 [10] was 15.5 µM. For the same compound, the TGI [10] was 31 µM.
O=C(CC12C3C4C1C1C2C3C41CC(=O)NO)NO (stereo not drawn) was tested, and the TGI [1] was 86.2 µM, the TGI [3] was greater than 100 µM and the TGI [4] was greater than 100 µM. It also gave a TGI [7] of 74.5 µM, a TGI [5] greater than 100 µM and a TGI [6] greater than 100 µM.
Compound C=CCc1c(O)c(C(=O)/C=C/c2ccc(Cl)cc2)c(OC)c2ccoc12 has a GI50 [8] of 3.81 µM, a TGI [8] of 15.6 µM and a GI50 [9] of 4.02 µM. The TGI [9] was 42.4 µM, the GI50 [2] was 2.88 µM and the TGI [2] was 13.3 µM. For the same compound, the GI50 [3] was 1.79 µM, the TGI [3] was 3.85 µM and the GI50 [4] was 2.74 µM. It also gave a TGI [4] of 9 µM, a GI50 [7] of 1.63 µM and a TGI [7] of 3.08 µM. The GI50 [5] was 2.31 µM, the TGI [5] was 6.17 µM and the GI50 [6] was 4.83 µM. The TGI [6] was 18.6 µM, the GI50 [10] was 2.06 µM and the TGI [10] was 4.53 µM.
Work on O=C(NC1CCC[C@H]1OC(=O)c1ccccc1)c1ccccc1 (stereo partly drawn) yielded a TGI [1] greater than 100 µM, a TGI [2] greater than 100 µM and a TGI [3] greater than 100 µM. The TGI [4] was greater than 100 µM and the TGI [6] was greater than 100 µM.
In the case of NS(=O)(=O)c1ccc(-n2nc3c(c2-c2cccs2)Cc2ccccc2-3)cc1, the GI50 [8] is reported as 6.76 µM, the TGI [8] is reported as 20.6 µM and the GI50 [9] is reported as 16.1 µM. The TGI [9] was 51 µM, the GI50 [2] was 12.2 µM and the TGI [2] was 24.6 µM. The GI50 [3] was 12.1 µM, the TGI [3] was 25.1 µM and the GI50 [4] was 7.67 µM. For the same compound, the TGI [4] was 22.7 µM, the GI50 [7] was 6.58 µM and the TGI [7] was 19.9 µM. It also gave a GI50 [5] of 11.7 µM, a TGI [5] of 24.7 µM and a GI50 [6] of 17.1 µM. It also gave a TGI [6] of 31.9 µM, a GI50 [10] of 11.8 µM and a TGI [10] of 27.6 µM.
CCO/C=C\C12CCCC1NC(c1ccccc1)(c1ccccc1)O2 (stereo not drawn) gave a TGI [1] of 45.2 µM, a TGI [2] of 73.6 µM and a TGI [3] of 66 µM. It also gave a TGI [4] greater than 100 µM, a TGI [5] of 92.5 µM and a TGI [6] greater than 100 µM.
